Publication PMC12110821, “Polyphyllin I Inhibits the Metastasis of Cervical Cancer Through the Regulation of the β-Catenin Signaling Pathway” (International Journal of Molecular Sciences, 2025)

Molecular target: T1, β-catenin (Homo sapiens, UniProt P35222)
T1 construct: gene CTNNB1; β-catenin protein (11279-H20B, Sinobiological)
T1 sequence (P35222 2-781): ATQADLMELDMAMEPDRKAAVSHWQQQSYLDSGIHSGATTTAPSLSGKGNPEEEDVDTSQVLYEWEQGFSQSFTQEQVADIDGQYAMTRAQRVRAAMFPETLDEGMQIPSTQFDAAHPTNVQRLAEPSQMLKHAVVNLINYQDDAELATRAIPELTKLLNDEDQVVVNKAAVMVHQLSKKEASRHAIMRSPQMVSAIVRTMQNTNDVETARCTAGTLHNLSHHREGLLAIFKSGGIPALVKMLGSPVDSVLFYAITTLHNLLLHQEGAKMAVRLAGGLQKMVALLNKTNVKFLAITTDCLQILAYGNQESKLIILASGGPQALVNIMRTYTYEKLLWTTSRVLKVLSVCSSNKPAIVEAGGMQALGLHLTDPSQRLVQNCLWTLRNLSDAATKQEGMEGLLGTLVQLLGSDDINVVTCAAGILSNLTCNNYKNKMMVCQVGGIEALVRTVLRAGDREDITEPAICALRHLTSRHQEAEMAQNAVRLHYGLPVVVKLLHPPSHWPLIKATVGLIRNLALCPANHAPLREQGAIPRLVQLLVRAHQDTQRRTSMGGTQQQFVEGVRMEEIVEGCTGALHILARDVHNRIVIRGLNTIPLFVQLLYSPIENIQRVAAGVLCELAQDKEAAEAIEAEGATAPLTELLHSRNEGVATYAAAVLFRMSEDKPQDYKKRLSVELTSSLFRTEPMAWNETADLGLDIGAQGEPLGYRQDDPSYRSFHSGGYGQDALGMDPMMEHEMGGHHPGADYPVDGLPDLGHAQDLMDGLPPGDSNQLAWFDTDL
Experiment: SPR (Biacore T200, CM5 chip, amine-coupled β-catenin); supported by CETSA in HO-8910PM lysate
Format: binding

C[C@@H]1CC[C@@]2(OC1)O[C@H]1C[C@H]3[C@@H]4CC=C5C[C@@H](O[C@@H]6O[C@H](CO)[C@@H](O[C@@H]7O[C@@H](CO)[C@H](O)[C@H]7O)[C@H](O)[C@H]6O[C@@H]6O[C@@H](C)[C@H](O)[C@@H](O)[C@H]6O)CC[C@]5(C)[C@H]4CC[C@]3(C)[C@H]1[C@@H]2C [PPI, Polyphyllin I]
Kd: 2.2 µM
